In publication PMC9266561, “1,3-Benzodioxole Derivatives Improve the Anti-Tumor Efficiency of Arsenicals” (International Journal of Molecular Sciences, 2022):
Where two headings read alike, the source gives them in different places.

Tests used:
[1] = test system: GSH; assay: GSH content; type: cell-based
[2] = test system: 4T1; assay: cells; type: cell-based
[3] = test system: Molm-13 cells; assay: Apoptosis assay by flow cytometry; type: cell-based; conditions: 0.2, 0.3 and 0.4 µM, 24 h
Description: The Molm-13 cells were cultured with 0.2, 0.3, and 0.4 µM MAZ2 for 24 h; then, the cells were collected and stained using annixin V-FITC and PE for 30 min. The separation lines were determined by single staining.

[4] = test system: cancer cells; assay: MTT assay, cancer cell lines taken together; type: cell-based; conditions: all cancer cell lines
Description: The bioactivity of all the synthetic compounds was evaluated by a MTT assay (Table 1, Tables S1 and S2) against two leukemia cell lines, Molm-13 and NB4; two solid tumor cell lines, HeLa (human cervix cell line) and 4T1 (breast cancer cell line); and two normal cell lines, COS-7 (African green monkey kidney cell line) and rat PBMC (peripheral blood mononuclear cell line).
Cells were cultured in 96-well plates overnight, followed by adding 80 μL of a related medium containing compounds of different concentrations and dissolved in DMSO for 24 h or 48 h. Then, 40 μL of MTT (2.5 mg/mL) was added and the cells were incubated for another 4 h. The cells were then dissolved in 100 μL of 10% SDS solution or DMSO to release and dissolve the purple MTT products, followed by absorbance detection (BioTek, Winooski, VT, USA).

[5] = test system: 4T1 tumors; assay: 4T1 tumor syngeneic model in Balb/C mice; type: in vivo; conditions: for average tumor weight reduced by: two administrations, day 26
Description: To confirm the bioactivity of MAZ2 in vivo, the tumor growth inhibition in 4T1 tumor syngeneic models in Balb/C mice was investigated (Figure 4A). When tumors grew to about 100 mm^3, the mice were divided into three groups; namely, the control, 1 mg/kg of MAZ2, and 1.5 mg/kg of MAZ2. Either a vehicle or the MAZ2 was injected intraperitoneally once a week. […] Therefore, the experiments were terminated at day 26 after two administrations.
(§1) The mice (BALB/c, female, 5 weeks), purchased from Hubei Provincial Laboratory Animal Public Service Center, were injected with 0.1 mL of 4T1 cells (1 × 10^6/mL) in the right haunch. After the tumor grew to approximately 100 mm^3, the mice were randomly divided into three groups: control (PBS:DMSO = 8:2), 1 mg/kg, and 1.5 mg/kg. The MAZ2 was administrated once a week (i.p.) for two doses. The 1.5 mg/kg group had six mice, and the tumors of two mice disappeared after 8 days; that is, after one administration, the two tumors were almost eliminated. The body weight and tumor volume were measured every two days.
(§2) Fresh tumors and organs were minced quickly in an ice bath and homogenized in a pre-cooled Dounce Tissue Grinder (WHEATON). The homogenate was dissolved by RIPA with 0.1% PMSF. The protein concentration was determined by a BCA Protein Assay Kit (Beyotime, Shanghai, China). A total of 20–40 μg of proteins were separated by 8–12% SDS-PAGE according to the molecular weight of certain proteins, followed by being transferred onto the polyvinylidene difluoride membrane. Then, the membrane was blocked with 5% fat-free milk for 2 h, followed by incubation with primary antibodies and HRP-conjugated secondary antibodies. Then, the images were snapped by QuickChemi5100.

[6] = Side effects in 4T1 tumor-bearing mice; type: in vivo
Description: as §1
Blood samples for the blood cell content tests were collected from the eye socket veins of the mice.
as §2
The 5 organs were formalin-fixed for 24 h immediately after the mice were sacrificed, and decalcified for 3.5 h, paraffin-embedded, cut, dewaxed, and hydrated. Some samples were stained with H&E. The pictures in the results were magnified by 400× and the scale bar was 50 µm.

[7] = Arsenic content of viscera and tumor by ICP-MS; conditions: mouse, in vivo
[8] = test system: 4T1 cells; assay: ROS level by DCFH-DA in 4T1 cells; type: cell-based
Description: The 4T1 cells treated with the MAZ2 of 0.8 and 1.6 µM were seeded in 6-well plates for 3, 6, 9, 12, and 24 h. Then, the medium was removed and fresh medium with DCFH-DA (0.2 µM) was added, followed by 30 min of incubation. Next, cells were collected and washed twice with PBS. Data were collected by a C6 flow cytometer (BD Biosciences, Franklin Lakes, New Jersey, USA).
The 4T1 cells treated with the MAZ2 of 0.8 and 1.6 µM were cultured in 1 cm dishes specially designed for confocal tests. Nine hours later, DCFH-DA was added for confocal tests.

[9] = test system: HeLa; assay: cells; type: cell-based, human
[10] = test system: 4T1 cells with TrxR knocked down; assay: MTT assay of 4T1 cells with TrxR siRNA knock-down; type: cell-based
[11] = test system: Molm-13; assay: cells; type: cell-based
[12] = test system: Trx system (TrxR1, Trx1, TrxR2, Trx2); assay: Transcription of Trx system genes in 4T1 cells; type: cell-based; conditions: 24 h, 1IC50 and 1.5IC50
Text: See the methods in previous work.

[13] = rat, in vivo
[14] = test system: TrxR; assay: Cellular TrxR activity of 4T1 cells; type: cell-based; conditions: 12 h incubation
[15] = test system: COS-7; assay: cells; type: cell-based, African green monkey
[16] = test system: NB4; assay: cells; type: cell-based
[17] = test system: Molm-13 and 4T1 cells; assay: MDA content (lipid peroxidation); type: cell-based; conditions: 6 and 12 h
Description: The Molm-13 and 4T1 cells were cultured in 6-well plates for 6 and 12 h, followed by an MDA test according to the manufacturer’s instructions.

[18] = test system: PBMC; assay: cells; type: cell-based, rat

With `COc1ccc(C(=O)Nc2ccc([As]3SCCCS3)cc2)cc1` [MAZ2] the “influence on the GSH content” value [1] was “very little influence”, the IC50 ([2]; read-out: IC50 4T1 24 h) was 800 nM and the IC50 ([2]; read-out: IC50 4T1 48 h) was 400 nM. The apoptosis induction [3] was “induced apoptosis in a dosage-dependent manner”, the IC50 [4] was less than 1000 nM and the “average tumor weight reduced by” value ([5]; 1 mg/kg i.p. once a week) was 30%. For the same compound, the “tumor growth (tumor volume)” value ([5]; 1 mg/kg or 1.5 mg/kg i.p. once a week) was “completely reverse the growth of tumors and gradually eliminate tumors”, the tumors eliminated ([5]; 1.5 mg/kg i.p. once a week, after two weeks) was “two tumors in the mice belonging to the 1.5 mg/kg MAZ2 group were eliminated” and the “average tumor weight reduced by” value ([5]; 1.5 mg/kg i.p. once a week) was 15%. The “TrxR and Trx content of tumors by western blot” value ([5]; tumors of treated mice) was “reduced the TrxR1 content slightly and reduced the Trx1 content by a large amount”, the “body weight of the mice” value ([6]; 1 and 1.5 mg/kg i.p. once a week) was “no obvious impact on the body weight” and the “blood cell counts (WBC, NEUT, LYMPH, MONO)” value ([6]; tumor-bearing mice versus normal mice) was “lowered the counts of blood cells and reversed abnormalities in the hematological system”. For the same compound, the “H&E staining of heart, liver, spleen, lungs, kidneys” value ([6]; two MAZ2-administered groups) was “showed healthy organs”, the “TrxR content of the liver and spleen” value ([6]; western blot) was “no changes” and the “arsenic content of tumor and viscera” value [7] was “gathered in the tumor instead of the viscera”. For the same compound, the “incubation time at which the ROS peak was reached” value [8] was 9 h, the ROS level ([8]; 0.8 and 1.6 µM) was “rose sharply in a dosage-dependent manner” and the IC50 ([9]; read-out: IC50 HeLa 24 h) was 400 nM. For the same compound, the IC50 ([9]; read-out: IC50 HeLa 48 h) was 300 nM, the “change of IC50 value after TrxR was knocked down” value [10] was 5.5 fold and the IC50 ([11]; read-out: IC50 Molm 24 h) was 200 nM. The IC50 ([11]; read-out: IC50 Molm 48 h) was 100 nM, the “transcription of the Trx system” value [12] was “decreased the transcription of the Trx system” and the “blood arsenic content over time” value [13] was “decreased slowly and remained at high levels even after 2 days”. The “TrxR activity of the 4T1 cells” value [14] was “sharply reduced activity”, the IC50 ([15]; read-out: IC50 COS-7 24 h) was 5200 nM and the IC50 ([15]; read-out: IC50 COS-7 48 h) was 3300 nM. For the same compound, the IC50 ([16]; read-out: IC50 NB4 24 h) was 400 nM, the IC50 ([16]; read-out: IC50 NB4 48 h) was 300 nM and the MDA content [17] was “increased acutely and dosage-dependently”. The IC50 ([18]; read-out: IC50 PBMC 24 h) was 7600 nM and the IC50 ([18]; read-out: IC50 PBMC 48 h) was 6900 nM.
